Values joined by “and” are separate entries in the source; they are usually repeats but may differ in a detail not shown here. Equal values may be shown once. Read-outs that look alike come from different tables or passages of the source. A value given as a limit tells only on which side of the number the result lay.

This note sets out measurements from US9549949B2, “Antiviral agent” (NBC MESHTEC, INC., priority 2008, dated 2017).

Common to all, as to format: cell-based
The subject of assay [1] is influenza virus (influenza A/kitakyusyu/159/93 (H3N2)).
The test system is the same in assay [2]. In words: Virus inactivation, plaque assay on MDCK cells. The settings on record: enveloped influenza virus, time period as short as 1 minute.
Assay [3] has as its system feline calicivirus (F9 strain). In words: Virus inactivation, plaque assay on CrFK cells. Conditions: non-enveloped feline calicivirus, time period as short as 1 minute.
[4] abbreviates: conc. of substance 0.5 mass %, 10 minutes at room temperature, control (PBS) 128.
The mark [5] stands for this setting: conc. of substance 5 mass %, 10 minutes at room temperature, control (PBS) 128.

Take `[I][Sn][I]` [Example 7, Tin (II) iodide]: the figures for the HA titer in assay [1] (setting [4]) and in assay [1] (setting [5]) were 2 and less than 2, respectively.
On the same counts, the results for `[Cu].[O]=[Cu]` [Example 27, Copper (I) oxide] are 64 and 8.
Regarding `[Co+2].[I-].[I-]` [Example 17, Cobalt (II) iodide], the HA titer in assay [1] (setting [4]) is 8; in assay [1] (setting [5]), less than 2.
For `N#C[S-].[Cu+]` [Example 25, Copper (I) thiocyanate], in that order: 64 and 16.
As to `[Cu][Br]` [Example 23, Copper (I) bromide], the HA titer is recorded as 32 in assay [1] (setting [4]) and less than 2 in assay [1] (setting [5]).
Take `[I][Bi]([I])[I]` [Example 13, Bismuth (III) iodide]: the results for the HA titer in assay [1] (setting [4]) and in assay [1] (setting [5]) were 64 and 8, respectively.
As to `[Cl][Cu]` [Example 22, Copper (I) chloride], the “virus inactivation activity (in words)” value in assay [2] and in assay [3] was “sufficiently high virus inactivation activity” each time. Further, the HA titer in assay [1] (setting [4]) and in assay [1] (setting [5]) was less than 2 each time.
As to `[I][Ge][I]` [Example 6, Germanium (II) iodide], the results for the HA titer in assay [1] (setting [4]) and in assay [1] (setting [5]) were 2 and less than 2, respectively.
With Silver (I) iodide [Example 20], the HA titer in assay [1] (setting [4]) is on record as 64; in assay [1] (setting [5]), 32.
Consider `[Fe+2].[I-].[I-]` [Example 16, Iron (II) iodide], for which the HA titer in assay [1] (setting [4]) and in assay [1] (setting [5]) was less than 2 in each case.
As for `[I-].[I-].[Zn+2]` [Example 19, Zinc (II) iodide], the figures for the HA titer in assay [1] (setting [4]) and in assay [1] (setting [5]) were 4 and less than 2, respectively.
Regarding `[I][Sn]([I])([I])[I]` [Example 8, Tin (IV) iodide], the HA titer in assay [1] (setting [4]) is given as 2; in assay [1] (setting [5]) it was less than 2.
As to `[Cu+].[I-]` [Example 1, Copper (I) iodide], the “virus inactivation activity (in words)” value in assay [2] and in assay [3] was “sufficiently high virus inactivation activity” each time. Moreover, the figures for the HA titer in assay [1] (setting [4]) and in assay [1] (setting [5]) were 32 and 8, respectively.
Regarding `[I-].[Tl+]` [Example 9, Thallium (I) iodide], the values for the HA titer in assay [1] (setting [4]) and in assay [1] (setting [5]) were 64 and 32, respectively.
As for `[I][Ni][I]` [Example 18, Nickel (II) iodide], the HA titer in assay [1] is <2 and 4.
For the compound `[I][In]([I])[I]` [Example 21, Indium (III) iodide], the HA titer in assay [1] (setting [4]) and in assay [1] (setting [5]) was less than 2 in each case.
As to `[I][Ir]([I])([I])[I]` [Example 4, Iridium (IV) iodide], the HA titer in assay [1] (setting [4]) is 64; in assay [1] (setting [5]), 32.
Take `[I-].[I-].[I-].[I-].[Pt+4]` [Example 11, Platinum (IV) iodide]: the HA titer amounted to 64 in assay [1] (setting [4]) and 32 in assay [1] (setting [5]).
Take `[I][Sb]([I])[I]` [Example 3, Antimony (III) iodide]: the HA titer in assay [1] (setting [4]) was 32; in assay [1] (setting [5]) it was 16.
As for `[I][Ge]([I])([I])[I]` [Example 5, Germanium (IV) iodide], the HA titer in assay [1] (setting [4]) and in assay [1] (setting [5]) was less than 2 each time.
With `[I][Pd][I]` [Example 12, Palladium (II) iodide], the HA titer was 64 in assay [1] (setting [4]) and 2 in assay [1] (setting [5]).
On to `CC(=O)[O-].[Cu+]` [Example 24, Copper (I) acetate], for which the HA titer in assay [1] is listed as less than 2.
Consider `[I][Au]` [Example 14, Gold (I) iodide], for which the figures for the HA titer in assay [1] (setting [4]) and in assay [1] (setting [5]) were 64 and 4, respectively.
